From patent US9351983B2, “Use of glycerophosphoinositols for the treatment of septic shock” (CONSIGLIO NAZIONALE DELLE RICERCHE, priority 2012, dated 2016) come the findings set out here.

This experiment concerns LPS-activated tissue-factor (TF) activity in human monocytes. The experiment can be described thus: Pro-coagulant activity of tissue factor (one-stage clotting time) in LPS-stimulated human monocytes. The experiment is classed as cell-based. Here is the method:
FIG. 2—The glycerophosphoinositols inhibit LPS-activated tissue-factor activity in human monocytes. Human monocytes were purified from peripheral blood of healthy donors and incubated at 37° C. for 20 min without or with different concentrations (from 50 μM to 300 μM) GroPIns or GroPIns4P, and for a further 5 h and 24 h in the absence and in presence of 0.1 μg/ml LPS from E. coli. […] Data are means (±SD) of three independent experiments performed with cells from different donors. Asterisks indicate statistically significant differences (*p=0.015; **p<0.005; ***p=0.0003) versus their respective controls. As shown, pro-coagulant activity was not detectable in untreated monocytes, and it was induced in a time-dependent manner by LPS stimulation.
The glycerophosphoinositol, differently from the PLA2IVα inhibitor, inhibits LPS-activated tissue-factor activity in human monocytes. Human monocytes were purified from peripheral blood of two healthy donors (experiment I and II) and pre-incubated at 37° C. for 20 min without (black line) or with 300 μM glycerophosphoinositol (GroPIns, blue line) or 0.5 μM PLA2IVα inhibitor (pyrrophenone, Pf, red line), and for a further 24 h in the absence or presence of increasing concentrations of LPS from E. coli (endotoxin).
The glycerophosphoinositol inhibits in a dose-dependent manner LPS-activated tissue-factor activity in human monocytes. Human monocytes were purified from peripheral blood of three healthy donors (experiments III, IV and V) and pre-incubated at 37° C. for 20 min without or with increasing concentrations of glycerophosphoinositol (GroPIns) and for a further 24 h in the absence or presence of 10 ng/ml of LPS from E. coli (endotoxin). […] The two insets in Exp IV and V show the pro-coagulant activity of tissue factor, assessed in cells stimulated by 10 ng/ml of endotoxin, with (filled bars) or without (dotted bars) 20 min pre-incubation at 37° C., in absence (Control) or in presence of 300 μM GroPIns.
The glycerophosphoinositols inhibit LPS-activated tissue-factor activity in human monocytes.
Human monocytes were obtained from whole blood collected from healthy donors (informed consent was obtained) and anticoagulated with 0.1 vol 3.8% sodium citrate/0.15 mol/l NaCl. The leukocytes were sedimented at 180×g for 15 min at 10° C. The sedimented cells were diluted to the initial volume with citrate-saline and sedimented again. This step was repeated to minimise platelet contamination. The cells were then layered onto Lymphoprep™, and centrifuged at 700×g for 20 min at 20° C. The ring of mononuclear cells was collected and sedimented at 620×g for 7 min at 8° C. The pellet was resuspended in citrate-saline and the cells were washed twice. Monocytes were purified using a discontinuous Percoll™ density gradient; the mononuclear cell preparation was resuspended in RPMI-1640 medium supplemented with 10% heat-inactivated foetal calf serum, and was layered onto a 46% isosmotic Percoll™ solution. After centrifugation at 20° C. for 30 min at 550×g, the cells at the RPMI-1640 medium/Percoll™ interface were collected and sedimented at 620×g. The pellet was resuspended in citrate-saline and the cells were washed twice. The final monocyte preparation was then resuspended in serum-free RPMI-1640 at the concentration required.
The pro-coagulant activity of tissue factor (TF activity) was measured in cell lysates according to one-stage clotting time [as reported in (Evangelista et al., Thromb Haemost. 2005; 94, 568-577)]. One hundred μl of cell lysates were added to 100 μl of 37° C. prewarmed normal human plasma. After 30 s, 100 μl 20 mM CaCl2 were added to the mixture and the clotting time was determined using a KC4A Amellung Coagulometer (Mascia Brunelli, Milan, Italy). The data were then converted in arbitrary units by interpolation with a standard curve generated with serial dilutions of human recombinant thromboplastin (Hemoliance, Instrumentation Laboratory).

The mark [1] stands for this setting: 300 μM, endotoxin 10 ng/ml for 24 h (FIG. 12).

For the compound `O=P(O)(O)O[C@@H]1[C@@H](O)[C@@H](O)[C@@H](OP(=O)(O)OCC(O)CO)[C@H](O)[C@H]1OP(=O)(O)O` (stereo partly drawn) [GroPIns4,5P2, glycerophosphoinositol 4,5-bisphosphate], under setting [1], the TF activity result is “reduce TF activity” and the “efficacy in reducing TF activity compared with GroPIns” value is listed as “higher efficacy than GroPIns”.
`O=C1NC(=O)/C(=C/c2ccc(C(=O)NC[C@@H]3C[C@@H](SC(c4ccccc4)(c4ccccc4)c4ccccc4)CN3C(=O)c3ccccc3C(=O)c3ccc(F)cc3F)cc2)S1` [pyrrophenone, reference compound]: the TF activity result (0.5 μM, 20 min pre-incubation, increasing concentrations of endotoxin for 24 h (FIG. 10)) is “does not significantly inhibit endotoxin effect on tissue-factor activity”.
